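48-hour exposure; five concentrations; linearly interpolated endpoints. TGI is the concentration that stops growth completely.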
Tests used:
Experiment in all cases: NCI-60 cell line screen, 48 h
A498 renal = test system: A498 renal
A549 NSCLC = test system: A549 NSCLC
ACHN renal = test system: ACHN renal
CAKI-1 renal = test system: CAKI-1 renal
CCRF-CEM leukemia = test system: CCRF-CEM leukemia
COLO 205 colon = test system: COLO 205 colon
DU-145 prostate = test system: DU-145 prostate
EKVX NSCLC = test system: EKVX NSCLC
HCC-2998 colon = test system: HCC-2998 colon
HCT-116 colon = test system: HCT-116 colon
HCT-15 colon = test system: HCT-15 colon
HL-60(TB) leukemia = test system: HL-60(TB) leukemia
HOP-62 NSCLC = test system: HOP-62 NSCLC
HS 578T breast = test system: HS 578T breast
HT29 colon = test system: HT29 colon
IGROV1 ovarian = test system: IGROV1 ovarian
K-562 leukemia = test system: K-562 leukemia
LOX IMVI melanoma = test system: LOX IMVI melanoma
M14 melanoma = test system: M14 melanoma
MALME-3M melanoma = test system: MALME-3M melanoma
MCF7 breast = test system: MCF7 breast
MDA-MB-231 breast = test system: MDA-MB-231 breast
MDA-MB-435 = test system: MDA-MB-435
MDA-N = test system: MDA-N
MOLT-4 leukemia = test system: MOLT-4 leukemia
NCI-H226 lung = test system: NCI-H226 lung
NCI-H23 lung = test system: NCI-H23 lung
NCI-H460 lung = test system: NCI-H460 lung
NCI-H522 lung = test system: NCI-H522 lung
NCI/ADR-RES ovarian = test system: NCI/ADR-RES ovarian
OVCAR-4 ovarian = test system: OVCAR-4 ovarian
OVCAR-5 ovarian = test system: OVCAR-5 ovarian
OVCAR-8 ovarian = test system: OVCAR-8 ovarian
PC-3 prostate = test system: PC-3 prostate
RPMI-8226 leukemia = test system: RPMI-8226 leukemia
RXF 393 renal = test system: RXF 393 renal
SF-268 CNS = test system: SF-268 CNS
SF-539 CNS = test system: SF-539 CNS
SK-MEL-2 melanoma = test system: SK-MEL-2 melanoma
SK-MEL-28 melanoma = test system: SK-MEL-28 melanoma
SK-MEL-5 melanoma = test system: SK-MEL-5 melanoma
SK-OV-3 ovarian = test system: SK-OV-3 ovarian
SN12C renal = test system: SN12C renal
SNB-19 CNS = test system: SNB-19 CNS
SNB-75 CNS = test system: SNB-75 CNS
SR leukemia = test system: SR leukemia
SW-620 colon = test system: SW-620 colon
T-47D breast = test system: T-47D breast
TK-10 renal = test system: TK-10 renal
U251 CNS = test system: U251 CNS
UACC-62 melanoma = test system: UACC-62 melanoma
UO-31 renal = test system: UO-31 renal
786-0 renal = test system: 786-0 renal
BT-549 breast = test system: BT-549 breast
HOP-92 NSCLC = test system: HOP-92 NSCLC
KM12 colon = test system: KM12 colon
OVCAR-3 ovarian = test system: OVCAR-3 ovarian
SF-295 CNS = test system: SF-295 CNS
UACC-257 melanoma = test system: UACC-257 melanoma

Measured: TGI

Cc1nc2[nH]ncn2c(=O)c1CCCl
not listed: 786-0 renal | BT-549 breast | HOP-92 NSCLC | KM12 colon | OVCAR-3 ovarian | SF-295 CNS | UACC-257 melanoma
> 10 µM: all other assays above

CN1C(=O)C(O)CC1c1ccccc1C(F)(F)F (stereo not given)
not listed: HS 578T breast | K-562 leukemia | SF-268 CNS | SR leukemia | T-47D breast | TK-10 renal
> 100 µM: all other assays above
